Assay [1] concerns HeLa. The assay is described as follows: Cytotoxicity against human HeLa cells at 30 uM after 72 hrs by MTT assay. The class given is functional. Background: Tetrazolium assays rely on reduction of a dye to a coloured formazan, in cell work by metabolically active cells.
The test system of assay [2] is A2780. The assay is described as follows: Cytotoxicity against human A2780 cells at 10 uM after 72 hrs by MTT assay. The class given is functional. To be noted: A2780, 72 h.
The subject of assay [3] is MCF7. The assay is described as follows: Cytotoxicity against human MCF7 cells at 30 uM after 72 hrs by MTT assay. The class given is functional. To be noted: MCF7, 72 h.
Assay [4] concerns A-431. The assay is described as follows: Cytotoxicity against human A431 cells at 30 uM after 72 hrs by MTT assay. The following applies: A-431, 72 h. The class given is functional.
The subject of assay [5] is A2780. The assay is described as follows: Cytotoxicity against human A2780 cells at 30 uM after 72 hrs by MTT assay. Type of assay: functional. To be noted: A2780, 72 h.
Assay [6] relates to MCF7. The assay is described as follows: Cytotoxicity against human MCF7 cells at 10 uM after 72 hrs by MTT assay. Type of assay: functional. The following applies: MCF7, 72 h.
The test system of assay [7] is HeLa. The assay is described as follows: Cytotoxicity against human HeLa cells at 10 uM after 72 hrs by MTT assay. The class given is functional.
For assay [8], the system named is A-431. The assay is described as follows: Cytotoxicity against human A431 cells at 10 uM after 72 hrs by MTT assay. The class given is functional. The following applies: A-431, 72 h.
Assay [9] has as its system HeLa. The assay is described as follows: Cytotoxicity against human HeLa cells after 72 hrs by MTT assay. Type of assay: functional, cell-based.
Assay [10] concerns A-431. The assay is described as follows: Cytotoxicity against human A431 cells after 72 hrs by MTT assay. The class given is functional, cell-based. To be noted: A-431, 72 h.
Assay [11] has as its system MCF7. The assay is described as follows: Cytotoxicity against human MCF7 cells after 72 hrs by MTT assay. Type of assay: functional, cell-based. To be noted: MCF7, 72 h.
For assay [12], the system named is A2780. The assay is described as follows: Cytotoxicity against human A2780 cells after 72 hrs by MTT assay. The class given is functional, cell-based. To be noted: A2780, 72 h.

Each structure is given as a SMILES string. pIC50: −log10 of the molar value.

Consider `C[C@]12CC[C@H]3[C@@H](CC=C4C[C@@H](O)CC[C@@]43C)[C@@H]1CC[C@@H]2c1nnc(-c2cccnc2)o1`, for which the inhibition at 30 µM in assay [1] amounted to 74.2%; in assay [3], 45.5%; in [4], 65.4%; in assay [5], 33.3%. In addition, the inhibition at 10 µM in assay [2] was 31.9%; in assay [6], 41.6%; in assay [7], 71.7%; in assay [8] it was 60.3%. The pIC50 in assay [9] was 5.32; in [10] it was 5.17.
Take `CC(=O)O[C@H]1CC[C@@]2(C)C(=CC[C@H]3[C@@H]4CC[C@H](/C=N/NC(=O)c5ccco5)[C@@]4(C)CC[C@@H]32)C1`: the results for the negative-log IC50 (pIC50) in assay [11], in [12] and in [9] were 4.92, 4.95 and 5.16, respectively. Moreover, the inhibition at 30 µM in assay [1] amounted to 91.2%; in assay [3], 55.1%; in [4], 40.4%; in assay [5] it was 70.5%. Besides, the inhibition at 10 µM in [2] turned out to be 26.2%; in [6], 26.7%; in assay [7] it was 77.8%; in assay [8], 39%.
For the molecule `CC(=O)O[C@H]1CC[C@@]2(C)C(=CC[C@H]3[C@@H]4CC[C@H](/C=N/NC(=O)c5cccnc5)[C@@]4(C)CC[C@@H]32)C1`, the inhibition at 30 µM in assay [1] turned out to be 88%; in assay [3], 28.7%; in assay [4] it was 37%; in [5], 84.3%. The inhibition at 10 µM in assay [2] was 27.8%; in [6], < 20%; in [7], 65.8%; in assay [8] it was 37.1%. Further, the pIC50 is 4.78 in [12] and 5.19 in assay [9].
As for `C[C@]12CC[C@H]3[C@@H](CC=C4C[C@@H](O)CC[C@@]43C)[C@@H]1CC[C@@H]2c1nnc(-c2ccco2)o1`, the inhibition at 30 µM in assay [1] turned out to be 77.5%; in [3] it was 46.6%; in [4], 69.2%; in [5], 37%. In addition, the inhibition at 10 µM worked out at 37.5% in assay [2], 42% in assay [6], 74.9% in assay [7] and 66.6% in assay [8]. Also, the pIC50 was 5.81 in [9] and 5.74 in assay [10].
As for `C[C@]12CC[C@H]3[C@@H](CC=C4C[C@@H](O)CC[C@@]43C)[C@@H]1CC[C@@H]2/C=N/NC(=O)c1ccccc1`, the inhibition at 30 µM in [1] stood at 90.4%; in assay [3], 48%; in assay [4], 38.1%; in [5] it was 60.9%. For the same molecule, the inhibition at 10 µM in assay [2] was 32.6%; in assay [6], < 20%; in assay [7], 72.2%; in assay [8] it was < 20%. Further, the negative-log IC50 (pIC50) in [12] was 4.69; in assay [9], 5.33.
For `C[C@]12CC[C@H]3[C@@H](CC=C4C[C@@H](O)CC[C@@]43C)[C@@H]1CC[C@@H]2/C=N/NC(=O)c1cccnc1`, the negative logarithm of the IC50 (pIC50) in [11] was 4.72; in assay [12], 4.95; in assay [9] it was 5.26; in [10], 4.89. For the same molecule, the inhibition at 30 µM came out at 90.9% in [1], 82.9% in assay [3], 71.8% in assay [4] and 66.4% in [5]. Further, the inhibition at 10 µM in assay [2] is 23.5%; in assay [6] it was < 20%; in assay [7] it was 80.5%; in [8], 40.1%.
As to `CC(=O)O[C@H]1CC[C@@]2(C)C(=CC[C@H]3[C@@H]4CC[C@H](c5nnc(-c6cccnc6)o5)[C@@]4(C)CC[C@@H]32)C1`, the negative logarithm of the IC50 (pIC50) in assay [11] was 4.58; in assay [9], 4.68; in [10], 4.63. Besides, the inhibition at 30 µM in assay [1] was determined as 65.8%; in assay [3], 55.7%; in assay [4], 60.8%; in assay [5] it was 48.2%. The inhibition at 10 µM in assay [2] is 22.8%; in assay [6] it was 21.8%; in [7], 22.5%; in assay [8] it was < 20%.
As for `CC(=O)O[C@H]1CC[C@@]2(C)C(=CC[C@H]3[C@@H]4CC[C@H](c5nnc(-c6ccccc6)o5)[C@@]4(C)CC[C@@H]32)C1`, the inhibition at 30 µM in assay [1] is 57.4%; in [3], 41.5%; in assay [4] it was 59.1%; in assay [5] it was 52%. The inhibition at 10 µM in [2] is < 20%; in assay [6], 22.6%; in assay [7], < 20%; in assay [8] it was < 20%. In addition, the pIC50 in [12] was 4.54; in assay [9], 4.53; in [10], 4.59.
Regarding `CC(=O)O[C@H]1CC[C@@]2(C)C(=CC[C@H]3[C@@H]4CC[C@H](/C=N/NC(=O)c5ccccc5)[C@@]4(C)CC[C@@H]32)C1`, the inhibition at 30 µM in assay [1] was found to be 90.2%; in assay [3], 44.4%; in [4], 45.5%; in [5], 89.2%. Further, the inhibition at 10 µM in [2] is 44.3%; in assay [6] it was < 20%; in assay [7], 71.2%; in assay [8], 45.1%. The results for the pIC50 in [12] and in assay [9] were 4.94 and 5.30, respectively.
Take `CC(=O)O[C@H]1CC[C@@]2(C)C(=CC[C@H]3[C@@H]4CC[C@H]([C@@H]5OC(c6ccccc6)=NN5C(C)=O)[C@@]4(C)CC[C@@H]32)C1`: the inhibition at 30 µM in assay [1] was 23%; in assay [3] it was < 20%; in assay [4], 30.6%; in assay [5] it was 40.3%. In addition, the inhibition at 10 µM in assay [2], in assay [6], in assay [7] and in assay [8] was < 20% each time.
In the case of `C[C@]12CC[C@H]3[C@@H](CC=C4C[C@@H](O)CC[C@@]43C)[C@@H]1CC[C@@H]2/C=N/NC(=O)c1ccco1`, the negative-log IC50 (pIC50) in assay [11] is 4.55; in assay [9], 5.25. Besides, the inhibition at 30 µM in assay [1] stood at 91.2%; in assay [3], 53.2%; in [4], 26.1%; in [5] it was 46.4%. The inhibition at 10 µM in assay [2] is 21.1%; in assay [6], 21.1%; in assay [7], 78%; in [8], 24.9%.
`CC(=O)O[C@H]1CC[C@@]2(C)C(=CC[C@H]3[C@@H]4CC[C@H](c5nnc(-c6ccco6)o5)[C@@]4(C)CC[C@@H]32)C1`: the inhibition at 30 µM was 48.2% in assay [1], 45.3% in assay [3], 25.9% in assay [4] and 43.5% in [5]. Also, the inhibition at 10 µM in assay [2] is 24.1%; in [6], 26.1%; in assay [7] it was 27.5%; in assay [8], < 20%.
Regarding `CC(=O)O[C@H]1CC[C@@]2(C)C(=CC[C@H]3[C@@H]4CC[C@H]([C@H]5OC(c6ccccc6)=NN5C(C)=O)[C@@]4(C)CC[C@@H]32)C1`, the inhibition at 30 µM is 71.3% in assay [1], 26.7% in assay [3], 41.7% in [4] and 53.5% in assay [5]. Besides, the inhibition at 10 µM is 20.2% in [2], < 20% in assay [6], < 20% in assay [7] and 22.7% in assay [8]. Further, the pIC50 in assay [12] is 4.56; in assay [9], 4.67.
With `C[C@]12CC[C@H]3[C@@H](CC=C4C[C@@H](O)CC[C@@]43C)[C@@H]1CC[C@@H]2c1nnc(-c2ccccc2)o1`, the inhibition at 30 µM was 80.7% in assay [1], 35.3% in assay [3], 69.9% in assay [4] and 38.7% in assay [5]. The inhibition at 10 µM in assay [2] was 29.2%; in assay [6] it was 31.6%; in assay [7], 77.4%; in assay [8], 68%. For the same molecule, the pIC50 in assay [9] was 5.77; in [10], 5.72.

Usually inhibition stands for the share of the control response that was lost under treatment. Low readings indicate little suppression, high ones strong suppression. As a reminder, the pIC50 is the negative decadic logarithm of the IC50, by convention in mol/L. The low end stands for a large IC50, the high end for a small IC50.

The values above are taken from ChEMBL document CHEMBL3124875, “A facile access to novel steroidal 17-2'-(1',3',4')-oxadiazoles, and an evaluation of their cytotoxic activities in vitro” (Bioorg Med Chem Lett, 2014).
